We go through three molecules from patent US7524852B2, “Bicyclic pyrimidine derivatives” (Kyowa Hakko Kogyo Co., Ltd., priority 2002, dated 2009).

In this test the test system is Hut78 cells. In words: Inhibitory activity on binding of [125I]-TARC to Hut78 cells. Conditions: [125I]-TARC binding to Hut78 cells; test compound at 1 μmol/L. As to the method: The RPMI-1640 medium (Sigma-Aldrich Japan) containing 20 mmol/L HEPES [4-(2-hydroxyethyl)-1-piperazinylethanesulfonic acid; HEPES, Nacalai Tesque, Inc.] and 0.1 w/v % bovine serum albumin (SEIKAGAKU CORPORATION) was adjusted to pH 7.0 with sodium hydrogen carbonate (Wako Pure Chemical Industries, Ltd.) to yield a binding/wash buffer. In a 96-well round-bottomed plate (Corning Costar Corporation) were placed 60 μL of a suspension of Hut78 cells (ATCC No. TIB-161) ([…] cells) in the binding/wash buffer, 20 μL of a solution of a test compound and 20 μL of a solution of 810 Bq of [^125I]-TARC (Amersham Biosciences K.K.) diluted with the binding/wash buffer up to the total aliquot of 100 μL, followed by reaction at room temperature for two hours. The solution of the test compound had been prepared by dissolving the test compound in dimethyl sulfoxide (Nacalai Tesque, Inc.) to a concentration of 10 mmol/L, and diluting the solution with the binding/wash buffer to a series of concentrations. The nonspecific binding was determined by a binding assay in the presence of a sufficient amount of unlabeled TARC. The total binding was defined as a binding in the case where dimethyl sulfoxide (Nacalai Tesque, Inc.) was added, instead of the test compound, in the same concentration (0.1 v/v %). […] Microscinti 20 (Packard BioScience Company) was placed in each well at 50 μL/well, and the radioactivity on the glass filter was determined using Topcount NXT™ (Packard BioScience Company). The binding inhibitory rates (%) of the test compounds were determined by calculation according to the following equation:
[formula] Total binding: [^125I]-TARC binding radioactivity without addition of the test compound Binding upon addition of test compound: [^125I]-TARC binding radioactivity at respective concentration upon addition of test compound Nonspecific binding: [^125I]-TARC binding radioactivity upon addition of unlabeled TARC
In the case of `CCNC(=O)N1CCc2nc(N3CCN(C[C@@H]4CN(C)CCO4)CC3)nc(NCc3ccc(Cl)cc3Cl)c2C1` [Compound 15-47], the “The Binding Inhibitory Rates at 1 μmol/L” value turned out to be 96.
`CCCNC(=O)N1CCc2nc(N3CCN(CC4CN(C)CCO4)CC3)nc(NCc3ccc(Cl)cc3Cl)c2C1` (stereo not drawn) [Compound 15-54]: the “The Binding Inhibitory Rates at 1 μmol/L” value was 97.
For the molecule `CCCNC(=O)N1CCc2nc(N3CCN(CC4CN(C)CCO4)CC3)nc(NCc3ccc(Cl)cc3Cl)c2C1` (stereo not drawn) [Compound 15-59], the “The Binding Inhibitory Rates at 1 μmol/L” value is recorded as 90.
